Source: article PMC11420776 (RSC Advances, 2024)

Key:
[1] = tested on: RPMI-8226 (leukemia); assay: NCI 60-cell one-dose antiproliferative screen; format: cell-based, human; settings: one dose 10 μM
[2] = tested on: HOP-62 (NSC lung cancer); assay: NCI 60-cell one-dose antiproliferative screen; format: cell-based, human; settings: one dose 10 μM
[3] = tested on: HCT-15 (colon cancer); assay: NCI 60-cell one-dose antiproliferative screen; format: cell-based, human; settings: one dose 10 μM
[4] = tested on: HT29 (colon cancer); assay: NCI 60-cell one-dose antiproliferative screen; format: cell-based, human; settings: one dose 10 μM
[5] = tested on: SNB-19 (CNS cancer); assay: NCI 60-cell one-dose antiproliferative screen; format: cell-based, human; settings: one dose 10 μM
[6] = tested on: SK-MEL-2 (melanoma); assay: NCI 60-cell one-dose antiproliferative screen; format: cell-based, human; settings: one dose 10 μM
[7] = tested on: OVCAR-8 (ovarian cancer); assay: NCI 60-cell one-dose antiproliferative screen; format: cell-based, human; settings: one dose 10 μM
[8] = tested on: SK-OV-3 (ovarian cancer); assay: NCI 60-cell one-dose antiproliferative screen; format: cell-based, human; settings: one dose 10 μM
[9] = tested on: A498 (renal cancer); assay: NCI 60-cell one-dose antiproliferative screen; format: cell-based, human; settings: one dose 10 μM
[10] = tested on: UO-31 (renal cancer); assay: NCI 60-cell one-dose antiproliferative screen; format: cell-based, human; settings: one dose 10 μM
[11] = tested on: PC-3 (prostate cancer); assay: NCI 60-cell one-dose antiproliferative screen; format: cell-based, human; settings: one dose 10 μM
[12] = tested on: DU-145 (prostate cancer); assay: NCI 60-cell one-dose antiproliferative screen; format: cell-based, human; settings: one dose 10 μM
[13] = tested on: T-47D (breast cancer); assay: NCI 60-cell one-dose antiproliferative screen; format: cell-based, human; settings: one dose 10 μM
[14] = target: Pim-1 kinase (Homo sapiens, UniProt P11309); assay: Pim-1 kinase inhibition assay; format: biochemical
[15] = tested on: p-PI3K; assay: Phosphorylated PI3K ELISA in MCF7 cells; format: cell-based, human; settings: 4g at its IC50 0.56 μM, compared to untreated MCF7 cells

Chain of Pim-1 kinase (P11309 whole entry): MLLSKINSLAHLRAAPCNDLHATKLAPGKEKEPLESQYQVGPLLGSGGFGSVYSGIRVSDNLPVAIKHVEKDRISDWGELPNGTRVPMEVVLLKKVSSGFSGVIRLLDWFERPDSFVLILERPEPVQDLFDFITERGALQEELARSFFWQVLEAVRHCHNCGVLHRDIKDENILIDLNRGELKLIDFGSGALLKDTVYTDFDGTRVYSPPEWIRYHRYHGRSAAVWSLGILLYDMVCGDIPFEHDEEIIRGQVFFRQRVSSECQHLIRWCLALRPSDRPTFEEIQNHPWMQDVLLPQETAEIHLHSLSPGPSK

With `COc1ccc(-c2nnc3ccc(NN=Cc4ccc(O)cc4)nn23)cc1` [Compound 4g, 4-((2-(3-(4-Methoxyphenyl)-[1,2,4]triazolo[4,3-b]pyridazin-6-yl)hydrazono)methyl)phenol] the GI% [1] was 86.88%, the GI% [2] was “— (— GI% is below 15%)” and the GI% [3] was 73.30%. For the same compound, the GI% [4] was “— (— GI% is below 15%)”, the GI% [5] was 32.46% and the GI% [6] was 26.79%. For the same compound, the GI% [7] was 54.60%, the GI% [8] was “— (— GI% is below 15%)” and the GI% [9] was “— (— GI% is below 15%)”. The GI% [10] was 69.74%, the GI% [11] was 59.52% and the GI% [12] was 48.11%. The GI% [13] was 54.64%, the IC50 [14] was 283 ± 10 nM and the “inhibition of PI3K phosphorylation” value [15] was 55.5%.
